The text below walks through data of US10849922B2, “Treatments for retinal disorders” (Cornell University, priority 2011, dated 2020).

For one series, the system named is eyecups from DKO mice. As to the kind of experiment: In vitro assay on eyecups of DKO mice. The conditions noted are these: 2 mM cyclodextrin, 36 hours of culture. As to the method:
FIGS. 17A, 17B. […] The resulting eyecups were in vitro treated with cyclodextrins for 36 hrs before observing them under the microscope (FIG. 17B).
Eyecups comprise the dark pigmented RPE, choriocapillaries, as well as the grayish sclera. Eyecups were incubated in complete media containing, or not, 2 mM cyclodextrins. After 36 hours of culture, eyecups were flat mounted on glasses and fluorescence was analyzed in the microscope.

The subject of another series is DKO mice. The series is described as follows: Fluorescence microscopy of cryosected retinas of DKO mice after subtenon injection. It is filed as in vivo. Particulars: single subtenon injection 4000 mg/kg, after 48 hours; for retinal detachment in cryosected retinas: 4000 mg/kg. The procedure: FIG. 18. Micrographs showing the fluorescence of cryosected retinas of 8-months old WT and DKO mice. The micrographs obtained from (A) a normal mouse, (B) DKO animals not treated with methyl beta-CD, and (C) DKO animals treated with methyl beta-CD. The DKO animals have strong autofluorescence in the RPE layer compared with WT as well as retinal detachment (size shown by arrow). Single subtenon administration of methyl Beta CD (4000 mg/kg) reduced both RPE autofluorescence and retinal detachment.
The retinas of wild type and DKO animals were analyzed by fluorescence microscopy with the following procedure. Briefly wild type and DKO animals were mock-treated or treated with a single subtenon injection with either vehicle or with methyl beta-cyclodextrin (4000 mg/kg). After 48 hours the eyes were enucleated, fixed, and cryosected. For viewing, 10-micron thick sections were blocked and stained with the red-fluorescently labeled lectin PNA to identify cones in the photoreceptor outer segments (PROS), and blue DAPI nuclear stain to identify the nuclei. In the gray scale micrograph of FIG. 18 (Panel A), the red and blue stains are not distinguishable, so the red fluorescence is labeled PROS and the lighter autofluorescent RPE is also labeled.

The conditions of series [1]: cited from earlier work.
Series [2] can be described thus: A2E fluorescence assay for molecules able to encapsulate A2E (AUC ratio). In kind it is binding. The conditions noted are these: fluorescence spectra changes as a function of added β-CD concentration. As to the method:
In the assay method, at least two solutions containing a lipofuscin bisretinoid lipid are first provided, and the at least two solutions should be substantially the same in all respects, such as in the type of lipofuscin bisretinoid lipid, the concentration of lipofuscin bisretinoid lipid, and the solvent composition. A candidate compound is then added to at least one of the solutions. Fluorescence spectra of the two solutions (i.e., a first solution not containing the candidate compound and a second solution containing the candidate compound) is then measured at an excitation wavelength (e.g., 434 nm or other suitable excitation wavelength) that causes fluorescence of the lipofuscin bisretinoid lipid in the range of 530 nm and 700 nm, or any suitable sub-range therein. An area under the curve (AUC) is then determined for corresponding spectral curves of the first and second solutions within the range of 530 nm and 700 nm or a sub-range therein. […] A ratio of the AUC of the second solution (containing the candidate compound) over the AUC of the first solution (not containing the candidate compound) is then calculated. […]
The fluorescence spectra were immediately determined (although it was stable for several days) between 530 and 700 nm using a 434 nm excitation wavelength. […] The area under the resulting spectral fluorescence curve was determined with statistical software (Prism4, GraphPad). […]

Series [3] in a line: Fluorescence comparison of cyclodextrin binding to DHE. Particulars: fluorescence spectra changes as a function of added β-CD concentration. The source says:
The binding of A2E and DHE (fluorescent cholesterol analog to cyclodextrins) has been herein investigated by using the assay method described above. […] The determination of affinity constants and stoichiometry for new inclusion complexes can be complex, particularly when the molecular ratio host:guest is bigger than 1. For cholesterol, however, the affinity constants, stoichiometry, molecular structure, and applications of many of its inclusion complexes with cyclic oligosaccharides have been well established. In this context, the side-by-side comparation of A2E and cholesterol complex formation with the same cyclic oligosaccharide serves as an immediate reference to evaluate the quality of the inclusion complex with A2E, as well as help in the determination of its affinity constant, stoichiometry, and structure.

The nature of another series: A2E oxidation assay. The conditions noted are these: A2E 5 μM in water, 48 hours, RT in the dark, cyclodextrin 10-100 mM. The procedure:
Solutions containing increasing amounts of Poly Beta-CD (0 mM to 100 mM) were prepared in water, and A2E was added to a final concentration of 5 μM. The solutions were incubated at RT in the dark. 48 hrs later, the UV-visible absorption spectra between 300 and 700 nm was analyzed to determine the oxidative status of A2E. […] These bands can be assigned to the shorter (S) and longer (L) arms of A2E, respectively. Oxidation of a carbon-carbon double bond is accompanied by a hypsochromic shift. A hypsochromic shift in band S corresponds with oxidation on the short arm; a blue-shift in band L reflects oxidation on the long arm; hypsochromic shifts in both peaks indicates oxidation on both side arms (Jang Y. P. et al., J. Biol. Chem., 2005, 280(48):39732-9). The results shown in FIG. 12A indicate that under this aqueous environment A2E oxidizes.

The nature of another series: A2E aggregation assay. The conditions noted are these: A2E 25 μM aqueous solution. The source says: A2E aggregates are believed to have a role in RPE cell death. This study investigated whether cyclic oligosaccharides dissolve A2E aggregates that form in aqueous phase. The following can be deduced from FIG. 13:
[…] After three days, the liquid in each chamber was harvested and analyzed with a spectrofluorometer to detect the presence of A2E. Only inserts with 3 μm pores allowed A2E to diffuse through.
The presence of A2E on each side was established by fluorescence scanning between 530-700 nm using 434 nm as the excitation wavelength.

As for Methyl-β-cyclodextrin [Compound 5], the “fluorescence of eyecups (bisretinoids in RPE)” value in the series with eyecups from DKO mice is on record as “lack of fluorescence”. In addition, in the series with DKO mice, the “RPE autofluorescence (bisretinoids) in cryosected retinas” value was “reduced”. In addition, the “retinal detachment in cryosected retinas” value in the series with DKO mice (listed as methyl Beta CD) is given as “reduced”; with DKO mice (listed as methyl beta-cyclodextrin), “reduced detachment”.
Regarding Triacetyl-β-cyclodextrin [Compound 12], in series [1], the “solubility in water (in words)” value is “insoluble”.
On to `OC[C@H]1O[C@@H]2O[C@H]3[C@H](O)[C@@H](O)[C@@H](O[C@H]4[C@H](O)[C@@H](O)[C@@H](O[C@H]5[C@H](O)[C@@H](O)[C@@H](O[C@H]6[C@H](O)[C@@H](O)[C@@H](O[C@H]7[C@H](O)[C@@H](O)[C@@H](O[C@H]8[C@H](O)[C@@H](O)[C@@H](O[C@H]1[C@H](O)[C@H]2O)O[C@@H]8CO)O[C@@H]7CO)O[C@@H]6CO)O[C@@H]5CO)O[C@@H]4CO)O[C@@H]3CO` [Compound 4, β-cyclodextrin], for which, in series [2], the “formation of inclusion complex with A2E” value was “A2E-β-CD inclusion complexes”. Moreover, in series [3], the “formation of inclusion complex with DHE” value is “formation of DHE-β-CD”. Also, in “A2E oxidation assay”, the “oxidation of A2E (UV-visible absorption spectra)” value is given as “oxidation of A2E was not observed”. The “dissolution of A2E aggregates in aqueous phase (diffusion through 0.2 μm pores)” value in “A2E aggregation assay” is “dissolved the A2E aggregates”.
